Results as given in publication PMC2709368 (The Journal of Biological Chemistry, 2009).

Each molecule was assayed against T1, prolectin (Homo sapiens, UniProt Q6ZS10) (assay: solid-phase competition binding, […]-Man-BSA reporter). Details: competitive; immobilised extracellular domain; Ca2+-dependent site.
T1 sequence (Q6ZS10 194-378 limits assumed): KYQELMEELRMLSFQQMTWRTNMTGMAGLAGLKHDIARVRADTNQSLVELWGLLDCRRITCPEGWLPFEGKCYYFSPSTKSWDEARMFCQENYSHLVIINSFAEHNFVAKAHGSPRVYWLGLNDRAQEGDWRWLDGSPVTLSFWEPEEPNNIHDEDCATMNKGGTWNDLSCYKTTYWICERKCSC

Row | SMILES | Relative KI
1 | C[C@@H]1OC(O)[C@@H](O)[C@H](O)[C@@H]1O (stereo partly shown) [Fuc] | 1.1 ± 0.1 relative to KI of αMe-Man
2 | CC(=O)N[C@H]1C(O)O[C@H](CO)[C@@H](O)[C@@H]1O (stereo partly shown) [GlcNAc] | 1.2 ± 0.1 relative to KI of αMe-Man
3 | CC(=O)N[C@H]1C(O)O[C@H](CO)[C@@H](O[C@@H]2O[C@@H](C)[C@@H](O)[C@@H](O)[C@@H]2O)[C@@H]1O[C@@H]1O[C@H](CO)[C@H](O)[C@H](O)[C@H]1O (stereo partly shown) [Le^a] | 0.22 ± 0.01 relative to KI of αMe-Man
4 | CC(=O)N[C@H]1C(O)O[C@H](CO)[C@@H](O[C@@H]2O[C@H](CO)[C@H](O)[C@H](O)[C@H]2O)[C@@H]1O[C@@H]1O[C@@H](C)[C@@H](O)[C@@H](O)[C@@H]1O (stereo partly shown) [Le^x] | 0.72 ± 0.08 relative to KI of αMe-Man
5 | OC[C@H]1OC(O)[C@@H](O)[C@@H](O)[C@@H]1O (stereo partly shown) [Man] | 1.2 ± 0.1 relative to KI of αMe-Man
6 | CO[C@H]1O[C@H](CO)[C@H](O)[C@H](O)[C@H]1O [αMe-Gal] | > 30 relative to KI of αMe-Man
7 | CO[C@H]1O[C@H](CO)[C@@H](O)[C@H](O)[C@H]1O [αMe-Glc] | 3.2 ± 0.1 relative to KI of αMe-Man
